Patent publication US7358352B2, “Nucleic acids encoding human TNF-α convertase” (Schering Corporation, priority 1996, dated 2008)
Where two headings read alike, the source gives them in different places. One block for each molecule: values may come before it. The star is where a group is joined. MeOSuc = COC(=O)CCC(=O)*; CH2Cl = ClC*

How the values were obtained:
TNF-α convertases = assay: In vitro assays for TNF-α convertase activity (protease inhibitor profile); format: biochemical
Protocol: For the assay of convertase activity associated with or isolated from membrane preparations, a protein-based assay was carried out essentially as described by Mohler et al., Nature 370:218 (1995).
Briefly, a peptide-tagged recombinant human TNF-α protein substrate (Flag-TNF-α) was cloned and expressed in E. coli. The protein was purified by affinity chromatography using an M2 (anti-Flag)-Sepharose column (Kodak), and by ion exchange chromatography using a BIOCAD equipped with an HQ10 column.
To test for convertase activity, a membrane protein sample (12 μg) was mixed (in 12 μl) with 2 ng of ^125I-polypeptide substrate (approximately 50,000 cpm) in the presence of inhibitors of other proteolytic enzymes [e.g., 200 μM 4-(2-aminoethyl)-benzenesulfonyl fluoride hydrochloride (AEBSF), 2 μM pepstatin, 200 μM leupeptin, 1 mM methoxysuccinyl-Ala-Ala-Pro-Val-chloromethylketone (AAPV)], and with or without 2.5 mM EDTA. Following incubation at 37° C. overnight, samples were fractionated in a 16% sodium dodecylsulfate (SDS) gel and subjected to SDS polyacrylamide gel electrophoresis [SDS-PAGE; Laemmli, Nature 227:680 (1970)]. The gels were dried, and radioactivity was detected by autoradiography.
A polypeptide-based assay for TNF-α convertase activity was also carried out essentially using the method of Mohler et al., supra. Briefly, an amino-terminal dinitrophenylated peptide substrate, amidated at the carboxyl terminus (SEQ ID NO: 4) was synthesized and purified using standard procedures. Dinitrophenylated polypeptides corresponding to cleavage products expected for TNF-α convertase (a dinitrophenylated peptide having the sequence of residues 1-6 of SEQ ID NO: 4) and for other membrane proteases were also synthesized.
To test for convertase activity, a membrane protein sample was mixed in 50 μl with 1 μg peptide substrate in the presence of inhibitors (0.2 mM AEBSF, 2 μM pepstatin, 200 μM leupeptin, 1 mM AAPV). Following incubation at 37° C. for from 60 minutes to overnight, the protein was precipitated by cold 5% trichloroacetic acid (TCA), 20% acetonitrile, and the soluble peptide fraction was applied to a YMC 120 angstrom C-18 ODS-AQ column (4.6×100 mm; YMC, Inc.). The column was eluted isocratically at a flow rate of 1 ml/min using 40% acetonitrile plus 0.06% trifloroacetic acid. The elution of DNP-peptide was monitored at 360 nm using a Waters 625 LC system.

TNF-α secretion [1] = conditions: in vitro; cited from earlier work
TNF-α secretion [2] = conditions: in vivo; cited from earlier work
lethal dose of endotoxin = conditions: mice; cited from earlier work
[3] = general property, concentration not given

Molecule: O=C(O)CI [IAA, iodoacetic acid]
- inhibition of TNF-α convertases (TNF-α convertases; 1 mM): Not inhibited

Molecule: O=c1oc(Cl)c(Cl)c2ccccc12 [DCI, dichloroisocoumarin]
- inhibition of TNF-α convertases (TNF-α convertases; 100 μM): Not inhibited

Molecule: methoxysuccinyl-Ala-Ala-Pro-Val-chloromethylketone (MeOSuc-AAPV-CH2Cl)
- inhibition of TNF-α convertases (TNF-α convertases; 1 mM): Not inhibited

Molecule: CNC(=O)[C@H](Cc1ccccc1)NC(=O)[C@H](CC(C)C)[C@H](CSc1ccccc1)C(=O)NO [GI 129471]
- block of TNF-α secretion (TNF-α secretion [1]): block TNF-α secretion
- block of TNF-α secretion (TNF-α secretion [2]): block TNF-α secretion

Molecule: CC(C)CC(CC(=O)NO)C(=O)N[C@@H](Cc1ccc2ccccc2c1)C(=O)N[C@@H](C)C(=O)NCCN (stereo partly drawn) [N-{D,L-[2-(hydroxyaminocarbonyl)methyl]-4-methylpentanoyl}L-3-(2′naphthyl)-alanyl-L alanine, 2-aminoethyl amide]
- protection against a lethal dose of endotoxin (lethal dose of endotoxin): protect mice against a lethal dose of endotoxin

Molecule: TIMP-1: tissue inhibitor of metalloproteases-1
- inhibition of TNF-α convertases (TNF-α convertases; 1 μg/ml): Not inhibited

Molecule: O=C(O)CNC(=O)C(CS)Cc1ccccc1 (centres unmarked) [thiorphan]
- inhibition of TNF-α convertases (TNF-α convertases; 100 μM): Not inhibited

Second part, led by results:

- inhibition of TNF-α convertases (TNF-α convertases; [3]): Inhibited
Molecule: O[C@H](CS)[C@H](O)CS (racemic) [DTT, dithiothreitol]

- inhibition of TNF-α convertases (TNF-α convertases; 100 μM): Not inhibited
Molecule: C[C@H](CS)C(=O)N1CCC[C@H]1C(=O)O [captopril]

- inhibition of TNF-α convertases (TNF-α convertases; [3]): Inhibited
Molecule: c1cnc2c(c1)ccc1cccnc12 [1,10-phenanthroline]

- inhibition of TNF-α convertases (TNF-α convertases; [3]): Inhibited
Molecule: α-2 macroglobulin: protein protease inhibitor

- inhibition of TNF-α convertases (TNF-α convertases; 300 μM): Not inhibited
Molecule: CC(C)C[C@H](NP(=O)(O)O[C@@H]1O[C@@H](C)[C@H](O)[C@@H](O)[C@H]1O)C(=O)N[C@@H](Cc1c[nH]c2ccccc12)C(=O)O [phosphoramidon]

- inhibition of TNF-α convertases (TNF-α convertases; [3]): Inhibited
Molecule: O=C(O)CN(CCN(CC(=O)O)CC(=O)O)CC(=O)O [EDTA, ethylenediaminetetraacetic acid]
- band at the position of the 17 kDa human TNF-α cleavage product (SDS-PAGE autoradiography) (TNF-α convertases; membrane protein sample, 125I Flag-TNF-α substrate, with or without 2.5 mM EDTA, 37° C. overnight): intensified bands from the samples incubated without EDTA

- inhibition of TNF-α convertases (TNF-α convertases; 100 μM): Not inhibited
Molecule: CC(C)C[C@H](NC(=O)[C@H]1O[C@@H]1C(=O)O)C(=O)NCCCCN=C(N)N (relative stereo) [E64]

- inhibition of TNF-α convertases (TNF-α convertases; 1 μg/ml): Not inhibited
B1: SBTI: soybean trypsin inhibitor (protein, UniProt P01070 25-205, looked up)
Trypsin inhibitor A: DFVLDNEGNPLENGGTYYILSDITAFGGIRAAPTGNERCPLTVVQSRNELDKGIGTIISSPYRIRFIAEGHPLSLKFDSFAVIMLCVGIPTEWSVVEDLPEGPAVKIGENKDAMDGWFRLERVSDDEFNNYKLVFCPQQAEDDKCGDIGISIDHDDGTRRLVVSKNKPLVVQFQKLDKESL
